Reference: the OPERA property sets (Mansouri et al. 2018)
Where a SMILES comes first, the peptide text is derived from it.

Row | SMILES | logP
1 | CCCC(=NOCC)C1=C(O)CC2(CCCCC2)OC1=O | 3.62
2 | Cc1nc2c3c(c(C(=O)O)cn2c1C)CCC(c1ccccc1)O3 (stereo unspecified) | 4.6
3 | COc1ccc(C2Cc3cc(SC(C)(C)C)ccc3N(CCN(C)C)C(=O)C2OC(C)=O)cc1 (stereo unspecified) | 5.6
4 | Nc1nc(N)nc(O)n1 | -0.19
5 | O=c1cc(-c2ccccc2Cl)oc2ccc(Cl)cc12 | 4.09
6 | CNC(C)Cc1ccc(F)cc1 (stereo unspecified) | 2.15
7 | CSCCC(N)C(=O)NC(Cc1c[nH]c2ccccc12)C(=O)O (stereo unspecified) | -1.5
8 | Cc1cc(C)cc(OCC2CN=C(N)O2)c1 (stereo unspecified) | 2.25
9 | CCOC(=O)c1ccc(N=NN(C)C(=O)OCOC(=O)C(C)NC(C)=O)cc1 (stereo unspecified) | 2.73
10 | C=CCC(=O)Nc1ccc(Cl)c(Cl)c1 | 3.63
11 | COP(=O)(OC)Oc1ccc(C#N)cc1 | 0.84
12 | COc1ccc(-n2nnnc2N)cc1 | 0.85
13 | COc1cc(OC)c2c(c1)OC(c1ccc(OC)c(OC)c1)C(O)C2 (stereo unspecified) | 3.1
14 | CCCCC(Nc1ccc([N+](=O)[O-])cc1[N+](=O)[O-])C(=O)O (stereo unspecified) | 3.25
15 | O=c1cc(CSCCO)occ1O | -0.69
16 | Clc1cc(Oc2ccccc2)c(Cl)c(Cl)c1Cl | 6.31
17 | CN(C)CCCC(c1ccccc1)c1ccccc1 | 4.91
18 | CCc1cccc2nc(N)nc(N)c12 | 1.69
19 | CN(C)C(c1ccccc1)c1ccccc1 | 3.37
20 | CC(=NNC(=O)c1ccc(Br)cc1)c1cnccn1 | 2.9
21 | CCC(C)C(N)C(=O)NC(C)C(=O)NC(C)C(=O)NC(C(=O)O)C(C)CC (stereo unspecified) (H-IAAI-OH; configuration not given here) | -2.82
22 | N=C1C=CC(=C(c2ccc(N)cc2)c2ccc(N)cc2)C=C1 | -0.21
23 | O=C(NP(=O)(N1CC1)N1CC1)c1ccc(F)cc1 | 0.86
24 | CCCOc1ccc(CNc2[nH]cnc3ncnc2-3)cc1 | 3.15
25 | CS(=O)(=O)CC(=O)C=NO | -0.69

Row | SMILES | logP
26 | CCN(CC)CCC(=O)Nc1ccc(N)cc1 | 0.8
27 | O=C(Nc1ncc([N+](=O)[O-])s1)c1ccc(Cl)c(Cl)c1 | 4.14
28 | COC(=O)C(Cc1ccccc1)(Cc1ccccc1)S(=O)(=O)c1ccc([N+](=O)[O-])cc1 | 4.46
29 | Cc1c(C)c2cc3c(C)coc3nc2oc1=O | 2.25
30 | CC[C@H](C)C(=O)O[C@H]1C[C@H](O)C=C2C=C[C@H](C)[C@H](CC[C@@H](O)C[C@@H](O)CC(=O)O)[C@H]21 | 2.18
31 | COc1ccc(CCN(C)CCCC(C#N)(c2cc(OC)c(OC)c(OC)c2)C(C)C)cc1OC (stereo unspecified) | 3.71
32 | COc1ccc(C2Cc3c(cccc3C(F)(F)F)N(CCN(C)C)C(=O)C2C)cc1 (stereo unspecified) | 5.6
33 | CC(C)CC(NC(=O)C(Cc1ccc(O)cc1)NC(=O)C(N)Cc1ccc(O)cc1)C(=O)O (stereo not drawn) (H-Tyr-Tyr-Leu-OH; configuration not given here) | -1.38
34 | Clc1ccccc1CNc1ncnc2nc[nH]c12 | 2.76
35 | CC(C)NCC(O)c1ccc([N+](=O)[O-])cc1 (stereo unspecified) | 1.28
36 | CCOC(=O)C(Cc1ccccc1)(Cc1ccccc1)S(=O)(=O)c1ccc([N+](=O)[O-])cc1 | 3.4
37 | Cn1c2c(c3cc(Cl)ccc31)CCNC2 | 2.3
38 | O=C(O)CCCON=C(c1ccccc1)c1cncnc1 | 2.2
39 | C=CC1(C)C=C2CCC3C(C)(CO)CCCC3(C)C2CC1 (stereo unspecified) | 6.85
40 | COC(=O)c1c(N2CCOCC2)c(-c2ccc(Cl)cc2)cn1C(=O)N1CCOCC1 | 3.1
41 | CCN(CC)c1ccc(NC(=O)N(C)OC)cc1 | 2.33
42 | Cc1c(C)c2cc3ccoc3c(C)c2oc1=O | 3.25
43 | COCc1ccc(CC#N)cc1 | 1.23
44 | Cn1c(=O)[nH]c2ncn(C)c2c1=O | -0.22
45 | Cc1coc2nc3oc(=O)cc(C)c3cc12 | 1.64
46 | CCSc1cccc2nc(N)nc(N)c12 | 2.27
47 | CC1=C(CC(=O)O)c2cc(F)ccc2C1=Cc1ccc(S(C)(=O)=O)cc1 | 3.29
48 | COc1c2oc(=O)c(C)cc2cc2c(C)c(C)oc12 | 3.28
49 | CCCCCCNCc1ccc(C)cc1 | 4.96
50 | Cc1cccc(N2CCN(CC3CN=C(N)O3)CC2)c1 (stereo unspecified) | 1.46

Row | SMILES | logP
51 | COc1ccccc1N1CCN(c2ccc(Nn3c(C)ccc3C)nn2)CC1 | 3.61
52 | OCC1OC(Oc2ccc3cc(Br)ccc3c2)C(O)C(O)C1O (stereo unspecified) | 1.97
53 | Cc1c2oc(=O)ccc2c(C)c2c(C)coc12 | 3.35
54 | CC(C)NC(=NC#N)NS(=O)(=O)c1cnccc1NC1CCCCCCC1 | 2.58
55 | CSCCC(N)C(=O)NC(CC(C)C)C(=O)NC(Cc1ccccc1)C(=O)O (stereo unspecified) | -1.03
56 | CC(C)c1cccc(C(C)C)c1NC(=O)CC(=O)C1(c2ccccc2)CCCC1 | 4.55
57 | CC1CCCCC1NC(=O)N1C(=O)N(C)CC1O (stereo unspecified) | 2.2
58 | COCCNC(=O)c1c(C)nc2c3c(c(C(=O)N(C)C)cn12)CCC(c1ccccc1)O3 (stereo unspecified) | 2.15
59 | Cc1ccc(CO)c(C=NNC(=O)c2cccc(Br)c2)c1O | 3.91
60 | CCC(C)C(N)C(=O)NC(C)C(=O)NCC(=O)NC(Cc1ccccc1)C(=O)O (stereo unspecified) (H-IAGF-OH; configuration not given here) | -1.78
61 | O=C(O)CCCON=C(c1ccccc1)c1ccncn1 | 1.95
62 | Cc1ccc(Cc2c[nH]cn2)c(C)c1 | 2.7
63 | Clc1cc(-c2ccc(Cl)c(Cl)c2Cl)cc(Cl)c1Cl | 7.6
64 | CON(C)C(=O)Nc1ccc(NS(C)(=O)=O)cc1 | 0.14
65 | CC(=O)c1ccc2ccc3cccc4ccc1c2c34 | 4.18
66 | COc1ccc(CCNCC(O)COc2ccc(-c3nc(CN4CCOCC4)c[nH]3)cc2)cc1OC (stereo unspecified) | 2.4
67 | CCCC(=NOCC)C1=C(O)CC2(CCC(C)CC2)OC1=O (stereo unspecified) | 4.07
68 | Cc1nc2c3c(c(C(=O)NC4CCC4)cn2c1C)CCC(c1ccccc1)O3 (stereo unspecified) | 4.5
69 | CCC(C)C(N)C(=O)NC(CO)C(=O)NC(CC(C)C)C(=O)O (stereo not drawn) (H-Ile-Ser-Leu-OH; configuration not given here) | -2.28
70 | CN1CCN(CCn2nnc3ccccc32)CC1 | 0.36
71 | COc1ccc(N2CC(N3CCCCC3)=NC2=O)cc1 | 1.5
72 | c1ccc(CCCc2ccccc2)cc1 | 3.43
73 | NC1=NCC(COc2cccc(Cl)c2)O1 (stereo unspecified) | 2.09
74 | COc1cccc(C2CCCCC2=O)c1 (stereo unspecified) | 2.42
75 | O=S1CCCC1 | -0.96

Row | SMILES | logP
76 | Cc1c(O)c(=O)ccn1CCCOC(=O)c1cccnc1 | -0.25
77 | NC1=NCC(COc2ccccc2Cc2ccccc2)O1 (stereo unspecified) | 3.05
78 | CNc1nccn2c(Cc3ccccc3F)nnc12 | 1.56
79 | O=C1c2c(O)cccc2C(=CNc2ccccc2)c2cccc(O)c21 | 4.96
80 | C=CCN(N=O)C(=O)N(CCCC(NC(C)=O)C(=O)NCc1ccccc1)Cc1ccccc1 (stereo unspecified) | 2.16
81 | Cc1cccc2c1C(=O)N(CCO[N+](=O)[O-])CO2 | 2.54
82 | CCCCCCCCNC(=O)N1C(=O)N(C)CC1O (stereo unspecified) | 3.46
83 | CC(=O)NCCC(=O)NCc1c(O)c(=O)cc(C)n1C | -1.7
84 | COC(=O)Cn1c(C)nc2ccccc2c1=O | 1.46
85 | CCCCNC(=O)N1C(=O)N(C)CC1O (stereo unspecified) | 1.38
86 | O=C1N=C(N2CCCC2)CN1c1ccc(Cl)cc1 | 2
87 | O=Cc1ccc2ccc3cccc4ccc1c2c34 | 4.23
88 | CON(C)C(=O)Nc1ccc(OC(C)CC2CCCCC2)cc1 (stereo unspecified) | 4.51
89 | CC1CC2C3CCC4=CC(=O)C=CC4(C)C3(F)C(O)CC2(C)C1(O)C(=O)COC(=O)C1CCCCC1 (stereo unspecified) | 4.46
90 | CCOC1N=C(c2ccccc2)c2cc(Cl)ccc2N(CCCl)C1=O (stereo unspecified) | 3.95
91 | Nc1nnnn1-c1ccccc1Cl | 0.87
92 | CC(C)NCC(O)COc1ccc(-c2nc(C(C)C)c[nH]2)cc1 (stereo unspecified) | 2.95
93 | CCC1C(=O)N(CCN(C)C)c2cccc(C(F)(F)F)c2CC1c1ccc(OC)cc1 (stereo unspecified) | 6.3
94 | CCCOc1cccc(CNc2[nH]cnc3ncnc2-3)c1 | 3.12
95 | CC(C)C(N)C(=O)NC(Cc1ccc(O)cc1)C(=O)O (stereo not drawn) (H-Val-Tyr-OH; configuration not given here) | -2.52
96 | Cn1c([N+](=O)[O-])cnc1C=NNC(N)=S | 0.65
97 | Cc1c(C)c2ccc3occc3c2oc1=O | 2.9
98 | CC(C)(C)NC(=O)[C@@H]1C[C@@H]2CCCC[C@@H]2CN1C[C@@H](O)[C@H](Cc1ccccc1)NC(=O)[C@H](CC(N)=O)NC(=O)c1ccc2ccccc2n1 | 4.7
99 | O=C(O)CCCCON=C(c1ccccc1)c1cncnc1 | 2.65
100 | COC(=O)C(C)NP(=O)(OCC1C=CC(n2cc(C)c(=O)[nH]c2=O)O1)Oc1ccc(Br)cc1 (stereo unspecified) | 1.6

Row | SMILES | logP
101 | Cn1c([N+](=O)[O-])cnc1-c1ccc(F)cc1 | 1.83
102 | CCN(CC)CCSC(=NO)c1noc(-c2ccccc2)n1 | 3.05
103 | CCCC(=O)OCOC(=O)N(C)N=Nc1ccc(C(=O)OCC)cc1 | 4.51
104 | COc1ccc(CCNCC(O)COc2ccc(-c3nc(C(N)=O)c[nH]3)cc2)cc1OC (stereo unspecified) | 2.3
105 | O=C1c2ccccc2-c2nnc(-c3ccccc3[N+](=O)[O-])cc21 | 2.64
106 | Cc1oc2nc3oc(=O)cc(C)c3cc2c1C | 2.25
107 | O=[N+]([O-])c1nccn1COCC=CCO | -0.28
108 | COC(=O)c1c(Oc2nc(OC)cc(OC)n2)cccc1C(C)=NOCC(F)(F)F | 3.39
109 | CC(C)CC(NC(=O)C(CC(C)C)NC(=O)C(C)NC(=O)C(C)NC(=O)CN)C(=O)O (stereo unspecified) (H-GAALL-OH; configuration not given here) | -2.55
110 | Clc1cc(Cl)c2c(oc3c(Cl)ccc(Cl)c32)c1Cl | 6.34
111 | Cc1ccc(C)c(Cc2cnc[nH]2)c1 | 2.72
112 | Cc1ccc(Cl)c(Cc2ccc(Cl)cc2Cl)c1 | 6.38
113 | CC(C)C(NC(=O)C(N)Cc1ccccc1)C(=O)NCC(=O)O (stereo not drawn) (H-Phe-Val-Gly-OH; configuration not given here) | -2.33
114 | c1ccc2c(c1)Cc1ncccc1-2 | 2.59
115 | Clc1cccc(N2CCN(CCn3nc4ccccc4n3)CC2)c1 | 4.1
116 | COC(=O)CNC(=O)Cn1c(C)nc2ccccc2c1=O | 0.4
117 | CC#CC(=O)c1c(C)nc2c3c(c(C(=O)N(C)C)cn12)CCC(c1ccccc1)O3 (stereo unspecified) | 3.4
118 | O=C(O)CCCCON=C(c1cccc(C(F)(F)F)c1)c1cccnn1 | 2.8
119 | CCCCOCCCNc1[nH]cnc2ncnc1-2 | 2.22
120 | Cc1sc2cc3oc(=O)cc(C)c3cc2c1C | 3.48
121 | CC(C)CC(N)C(=O)NC(CC(C)C)C(=O)NC(Cc1ccc(O)cc1)C(=O)O (stereo not drawn) (H-Leu-Leu-Tyr-OH; configuration not given here) | -1.34
